# Compound: C[C@@H](Oc1cc(-c2cnn(C3CCNCC3)c2)cnc1N)c1c(Cl)ccc(F)c1Cl [Crizotinib] + CC1(C)CCC(c2ccc(Cl)cc2)=C(CN2CCN(c3ccc(C(=O)NS(=O)(=O)c4ccc(N[C@H](CCN5CCOCC5)CSc5ccccc5)c(S(=O)(=O)C(F)(F)F)c4)cc3)CC2)C1 [Navitoclax] (partner 0.5 µM)
# Assay: relative viability (nuclei count vs DMSO), 5 days (fraction); higher = more cells survive
# Conditions: first compound 0.01 µM
# Procedure, shortened: (§1)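 Values are medians from duplicate plates. Each reflects relative viability, defined as the nuclei count of treated wells over that of vehicle wells. Lung cancer cell lines in 1536-well plates were pin-tool dosed one day after seeding with one drug alone or with a fixed anchor-drug dose plus five library-drug doses (not always all listed) in √10 steps, then fixed, stained and imaged at 4× after 5 days.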
row,Cell Line,relative viability
1,NCI-H322M,1.07
2,NCI-H441,0.959
3,NCI-H520,1.01
4,NCI-H596,0.845
5,NCI-H647,1.01
6,NCI-H727,0.394
7,NCI-H838,1.14
8,NCI-H1355,0.901
9,NCI-H1437,1.05
10,NCI-H1650,1.1
11,NCI-H1651,0.98
12,NCI-H1666,0.93
13,NCI-H1734,0.888
14,NCI-H1755,0.937
15,NCI-H1792,0.629
16,NCI-H1915,0.694
17,NCI-H1944,1.01

row,Cell Line,relative viability
1,NCI-H1975,0.965
2,NCI-H1993,0.769
3,NCI-H2009,1.1
4,NCI-H2023,0.98
5,NCI-H2085,1.02
6,NCI-H2087,0.828
7,NCI-H2126,0.834
8,NCI-H2170,0.536
9,NCI-H2228,1.01
10,NCI-H2347,0.682
11,NCI-H2405,0.816
12,NCI-H3122,0.99
13,PC-3 [JPC-3],0.809
14,PC-14,0.983
15,RERF-LC-KJ,1.18
16,SK-LU-1,0.829

# Same assay, conditions: first compound 0.03162 µM
row,Cell Line,relative viability
1,NCI-H322M,1.12
2,NCI-H441,0.571
3,NCI-H460,1.03
4,NCI-H520,1.05
5,NCI-H647,1.21
6,NCI-H727,0.459
7,NCI-H838,1.14
8,NCI-H1355,1.02
9,NCI-H1437,1.07
10,NCI-H1650,1.15
11,NCI-H1651,1.12
12,NCI-H1666,0.81
13,NCI-H1734,0.81
14,NCI-H1755,1.02
15,NCI-H1792,0.679
16,NCI-H1915,0.782
17,NCI-H1944,0.995

row,Cell Line,relative viability
1,NCI-H1975,1.06
2,NCI-H1993,0.897
3,NCI-H2009,1.16
4,NCI-H2023,0.985
5,NCI-H2085,1.09
6,NCI-H2087,0.996
7,NCI-H2126,0.826
8,NCI-H2170,0.603
9,NCI-H2228,1.2
10,NCI-H2347,0.734
11,NCI-H2405,0.815
12,NCI-H3122,0.993
13,PC-3 [JPC-3],0.807
14,PC-14,0.96
15,RERF-LC-KJ,0.767
16,SK-LU-1,0.851

# Same assay, conditions: first compound 0.1 µM
row,Cell Line,relative viability
1,NCI-H322M,1.19
2,NCI-H441,0.682
3,NCI-H460,1.1
4,NCI-H520,1.31
5,NCI-H647,1.03
6,NCI-H727,0.505
7,NCI-H838,1.16
8,NCI-H1355,0.929
9,NCI-H1437,1.14
10,NCI-H1650,1.08
11,NCI-H1651,0.997
12,NCI-H1666,0.857
13,NCI-H1734,0.844
14,NCI-H1755,0.999
15,NCI-H1792,0.745
16,NCI-H1915,0.818
17,NCI-H1944,1

row,Cell Line,relative viability
1,NCI-H1975,1.03
2,NCI-H1993,0.669
3,NCI-H2009,1.17
4,NCI-H2023,0.994
5,NCI-H2085,1.03
6,NCI-H2087,1.09
7,NCI-H2126,0.842
8,NCI-H2170,0.574
9,NCI-H2228,0.648
10,NCI-H2347,0.849
11,NCI-H2405,0.79
12,NCI-H3122,1.04
13,PC-3 [JPC-3],0.815
14,PC-14,0.991
15,RERF-LC-KJ,1.13
16,SK-LU-1,0.887

# Same assay, conditions: first compound 0.3162 µM
row,Cell Line,relative viability
1,NCI-H322M,1.13
2,NCI-H460,1.2
3,NCI-H596,1
4,NCI-H727,0.436
5,NCI-H838,1.19
6,NCI-H1355,0.923
7,NCI-H1437,1.02
8,NCI-H1650,1.2
9,NCI-H1651,1.15
10,NCI-H1666,0.876
11,NCI-H1755,0.961
12,NCI-H1792,0.398
13,NCI-H1944,1.03
14,NCI-H1975,1.26
15,NCI-H1993,0.831
16,NCI-H2009,1.21
17,NCI-H2023,0.932
18,NCI-H2085,1.07
19,NCI-H2087,0.888
20,NCI-H2126,0.759
21,NCI-H2170,0.468
22,NCI-H2228,0.996
23,NCI-H2347,0.799
24,NCI-H2405,0.858
25,NCI-H3122,1.02
26,PC-3 [JPC-3],0.684
27,PC-14,1.04
28,RERF-LC-KJ,0.682
29,SK-LU-1,0.938

# Same assay, conditions: first compound 1 µM
row,Cell Line,relative viability
1,NCI-H322M,1.3
2,NCI-H441,0.798
3,NCI-H460,1.13
4,NCI-H520,1.12
5,NCI-H596,0.964
6,NCI-H647,1.06
7,NCI-H727,0.393
8,NCI-H838,1.13
9,NCI-H1355,0.931
10,NCI-H1437,1.13
11,NCI-H1650,1.13
12,NCI-H1651,1.28
13,NCI-H1666,1.06
14,NCI-H1755,0.983
15,NCI-H1792,0.577
16,NCI-H1915,0.801

row,Cell Line,relative viability
1,NCI-H1944,1.05
2,NCI-H1975,1.06
3,NCI-H1993,0.805
4,NCI-H2009,1.22
5,NCI-H2085,1.2
6,NCI-H2087,1.19
7,NCI-H2126,0.832
8,NCI-H2170,0.632
9,NCI-H2228,0.409
10,NCI-H2347,0.852
11,NCI-H2405,0.862
12,PC-3 [JPC-3],0.858
13,PC-14,0.998
14,RERF-LC-KJ,1.02
15,SK-LU-1,0.806

# Compound: O=C(c1cc(Cc2n[nH]c(=O)c3ccccc23)ccc1F)N1CCN(C(=O)C2CC2)CC1 [Olaparib] + CCNC(=O)c1noc(-c2cc(C(C)C)c(O)cc2O)c1-c1ccc(CN2CCOCC2)cc1 [Luminespib] (partner 0.01 µM)
# Assay: as above
# Conditions: first compound 0.08 µM
# Procedure, shortened: as §1
row,Cell Line,relative viability
1,NCI-H322M,0.98
2,NCI-H441,0.38
3,NCI-H460,0.0349
4,NCI-H520,0.205
5,NCI-H596,0.93
6,NCI-H647,0.126
7,NCI-H727,0.446
8,NCI-H838,0.332
9,NCI-H1355,0.648
10,NCI-H1437,1.26
11,NCI-H1650,0.245
12,NCI-H1651,0.798
13,NCI-H1666,1.1
14,NCI-H1734,0.212
15,NCI-H1755,0.743
16,NCI-H1792,0.484
17,NCI-H1915,0.685

row,Cell Line,relative viability
1,NCI-H1944,0.741
2,NCI-H1975,0.169
3,NCI-H1993,0.87
4,NCI-H2009,1.13
5,NCI-H2023,0.647
6,NCI-H2085,0.499
7,NCI-H2087,0.162
8,NCI-H2126,1.13
9,NCI-H2170,0.735
10,NCI-H2228,0.146
11,NCI-H2347,0.43
12,NCI-H2405,0.646
13,NCI-H3122,0.0823
14,PC-3 [JPC-3],0.832
15,PC-14,0.199
16,RERF-LC-KJ,1.22
17,SK-LU-1,0.228

# Same assay, conditions: first compound 0.253 µM
row,Cell Line,relative viability
1,NCI-H322M,0.821
2,NCI-H441,0.314
3,NCI-H460,0.0392
4,NCI-H520,0.277
5,NCI-H596,0.883
6,NCI-H647,0.186
7,NCI-H727,0.531
8,NCI-H838,0.218
9,NCI-H1355,0.694
10,NCI-H1437,1.08
11,NCI-H1650,0.188
12,NCI-H1651,0.605
13,NCI-H1666,0.879
14,NCI-H1734,0.205
15,NCI-H1755,0.411
16,NCI-H1792,0.359
17,NCI-H1915,0.575

row,Cell Line,relative viability
1,NCI-H1944,0.625
2,NCI-H1975,0.174
3,NCI-H1993,0.842
4,NCI-H2009,0.966
5,NCI-H2023,0.724
6,NCI-H2085,0.381
7,NCI-H2087,0.159
8,NCI-H2126,0.797
9,NCI-H2170,0.651
10,NCI-H2228,0.132
11,NCI-H2347,0.615
12,NCI-H2405,0.651
13,NCI-H3122,0.107
14,PC-3 [JPC-3],0.749
15,RERF-LC-KJ,1.08
16,SK-LU-1,0.178

# Same assay, conditions: first compound 2.53 µM
row,Cell Line,relative viability
1,NCI-H322M,0.906
2,NCI-H441,0.318
3,NCI-H460,0.0354
4,NCI-H520,0.255
5,NCI-H596,0.788
6,NCI-H647,0.15
7,NCI-H727,0.461
8,NCI-H838,0.229
9,NCI-H1355,0.52
10,NCI-H1437,1.06
11,NCI-H1650,0.2
12,NCI-H1651,0.431
13,NCI-H1666,0.889
14,NCI-H1734,0.185
15,NCI-H1755,0.41
16,NCI-H1792,0.409
17,NCI-H1915,0.408

row,Cell Line,relative viability
1,NCI-H1944,0.534
2,NCI-H1975,0.258
3,NCI-H1993,0.78
4,NCI-H2009,0.893
5,NCI-H2023,0.629
6,NCI-H2085,0.427
7,NCI-H2087,0.199
8,NCI-H2126,0.811
9,NCI-H2170,0.594
10,NCI-H2228,0.145
11,NCI-H2347,0.398
12,NCI-H2405,0.685
13,NCI-H3122,0.101
14,PC-3 [JPC-3],0.587
15,PC-14,0.134
16,RERF-LC-KJ,1.23
17,SK-LU-1,0.194

# Same assay, conditions: first compound 8 µM
row,Cell Line,relative viability
1,NCI-H322M,0.527
2,NCI-H441,0.281
3,NCI-H460,0.034
4,NCI-H520,0.23
5,NCI-H596,0.638
6,NCI-H647,0.121
7,NCI-H727,0.346
8,NCI-H838,0.219
9,NCI-H1355,0.572
10,NCI-H1437,0.809
11,NCI-H1650,0.195
12,NCI-H1651,0.216
13,NCI-H1666,0.697
14,NCI-H1734,0.183
15,NCI-H1755,0.418
16,NCI-H1792,0.425
17,NCI-H1915,0.387

row,Cell Line,relative viability
1,NCI-H1944,0.534
2,NCI-H1975,0.234
3,NCI-H1993,1.04
4,NCI-H2009,0.701
5,NCI-H2023,0.379
6,NCI-H2085,0.437
7,NCI-H2087,0.154
8,NCI-H2126,0.724
9,NCI-H2170,0.5
10,NCI-H2228,0.117
11,NCI-H2347,0.259
12,NCI-H2405,0.782
13,NCI-H3122,0.0643
14,PC-3 [JPC-3],0.592
15,PC-14,0.156
16,RERF-LC-KJ,1
17,SK-LU-1,0.199

# Compound: C[C@@H](Oc1cc(-c2cnn(C3CCNCC3)c2)cnc1N)c1c(Cl)ccc(F)c1Cl [Crizotinib] + Cc1nc(Nc2ncc(C(=O)Nc3c(C)cccc3Cl)s2)cc(N2CCN(CCO)CC2)n1 [Dasatinib] (partner 0.075 µM)
# Assay: as above
# Conditions: first compound 0.01 µM
# Procedure, shortened: as §1
row,Cell Line,relative viability
1,NCI-H322M,0.23
2,NCI-H441,0.531
3,NCI-H460,0.358
4,NCI-H520,0.19
5,NCI-H596,0.634
6,NCI-H647,0.148
7,NCI-H838,0.208
8,NCI-H1355,0.736
9,NCI-H1437,0.376
10,NCI-H1650,0.273
11,NCI-H1651,0.374
12,NCI-H1666,0.808
13,NCI-H1734,0.49
14,NCI-H1755,0.407
15,NCI-H1792,0.706
16,NCI-H1915,0.307
17,NCI-H1944,0.193
18,NCI-H1975,0.347
